These are literature values, as cited in patent EP2871189A1, “High-affinity monoclonal anti-strep-tag antibody” (INSTITUT PASTEUR, priority 2013, dated 2015).

For this data set, the target named is Strep-Tactin. The note with it: individual binding site (monovalent interaction) on Strep-Tactin; Schmidt TG et al, J.Mol. Biol. 1996; read-out: dissociation constant.

Turning to “Strep-tag II peptide: peptide tag of minimal sequence WSHPQFEK (SEQ ID NO:9) that binds streptavidin / Strep-Tactin”, the Kd is ~1000 nM.
